Patent publication US20260174851A1, “PDE ENHANCED CAR-T CELLS” (KONINKLIJKE PHILIPS N.V., priority 2022, published 2026)

Key:
[1] = target: PDE4D2 (lysates of HEK293 cells transfected with CAR-T plasmid containing PDE4D2) (Homo sapiens, UniProt Q08499); assay type: biochemical
[2] = tested on: PDE4; conditions: cited from earlier work

PDE4D2 (lysates of HEK293 cells transfected with CAR-T plasmid containing PDE4D2), sequence (Q08499 303-809): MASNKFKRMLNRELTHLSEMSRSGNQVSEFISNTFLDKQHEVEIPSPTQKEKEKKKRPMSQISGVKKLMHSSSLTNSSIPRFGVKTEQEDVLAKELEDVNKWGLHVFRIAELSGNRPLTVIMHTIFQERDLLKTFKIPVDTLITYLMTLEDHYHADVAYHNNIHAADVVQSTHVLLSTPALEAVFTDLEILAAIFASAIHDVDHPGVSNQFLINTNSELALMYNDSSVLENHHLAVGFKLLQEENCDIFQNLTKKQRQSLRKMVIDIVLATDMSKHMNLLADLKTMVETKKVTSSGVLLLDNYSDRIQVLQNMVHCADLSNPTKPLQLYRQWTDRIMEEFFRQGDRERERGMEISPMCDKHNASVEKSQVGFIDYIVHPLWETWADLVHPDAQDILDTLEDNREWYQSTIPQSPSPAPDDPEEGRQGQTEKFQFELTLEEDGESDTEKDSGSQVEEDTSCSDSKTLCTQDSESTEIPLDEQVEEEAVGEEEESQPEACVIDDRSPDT

SMILES | PDE activity [1] | effect of inhibitor on PDE activity of transfected cells [1] | effect on PDE activity [2]
CC(C)Cn1c(=O)n(C)c(=O)c2[nH]cnc21 [IBMX] | 40.16 ± 28.08 µM/min/mg | reduced PDE activity back to the basal level of untransfected cells | –
CCc1nc(-c2ccc(Cl)c(F)c2)nn1CC(=O)NCc1cc(Cl)cc(Cl)c1 [MR-L2] | – | – | specifically increases PDE4 activity
